The source of these data is ChEMBL document CHEMBL1275420, “Transfer of embB codon 306 mutations into clinical Mycobacterium tuberculosis strains alters susceptibility to ethambutol, isoniazid, and rifampin” (2008).

≈ marks a conversion by molar mass, not a printed value.

The subject of this assay is Mycobacterium tuberculosis. Put plainly: Antimycobacterial activity against Mycobacterium tuberculosis isolate 210 at 37 degC after 10 to 11 days by radiometric Bactec 460TB method. It counts as functional.

Usually MIC stands for the lowest concentration found to suppress growth. Higher therefore signals a less susceptible organism. `NNC(=O)c1ccncc1` [ISONIAZID] came in with an MIC of 0.05 µg/mL (≈ 0.365 µM). The molecule `CO[C@H]1/C=C/O[C@@]2(C)Oc3c(C)c(O)c4c(O)c(c(/C=N/N5CCN(C)CC5)c(O)c4c3C2=O)NC(=O)/C(C)=C\C=C\[C@H](C)[C@H](O)[C@@H](C)[C@@H](O)[C@@H](C)[C@H](OC(C)=O)[C@@H]1C` [RIFAMPIN] registered a minimal inhibitory concentration (MIC) of 0.05 µg/mL (≈ 0.0608 µM).

Turning to `CC[C@@H](CO)NCCN[C@@H](CC)CO` [ETHAMBUTOL], it took 2 µg/mL (≈ 9.79 µM) to inhibit growth (MIC).
